According to US20190016747A1, “PURIFIED REBAUDIOSIDE A” (SGF Holdings, LLC, priority 2004, published 2019):
Like-named read-outs stand apart in the source and are kept apart here.

Experiment: Solubility in water by incremental addition of water until complete solubilization
Type: physicochemical
Conditions: for % Solubility (solids (g)/ final volume (ml)): in water at room temperature, Example 4 samples
Method: In Example 4, RA89.95 Stevia starting material was processed through two reflux stages of the industrial embodiment of the invention, and a sample of the final product of the industrial process used as starting material in a stirred wash stage of the laboratory embodiment of the invention. Specifically, 100 kilograms of RA90 Stevia starting material were mixed with 400 liters of 90Et/10W solvent (this experiment was conducted while the starting material assay was still being perfected) and refluxed for 1 hour at 80° C., then cooled (chilled water in tank jacket) and allowed to stand for a minimum of 2 hours with mixture temperature maintained between 4° C. and 20° C. The mixture was filtered through a centrifugal decanter, and the retentate added to 400 liters of 90Et/10W solvent and refluxed for 1 hour at 80° C. The mixture from the second reflux was filtered through a centrifugal decanter. The retentate of the filtering of the second reflux mixture was mixed with water until the volume of the mixture was approximately twice the mass of the retentate (e.g., 350 kg retentate in a total mixture volume of 700 liters). The mixture in water was heated to 80° C. for approximately one hour to purge any residual ethanol from the mixture, then the mixture was spray-dried. There was no reflux in absolute ethanol prior to spray drying. The spray-dried product was weighed and a 0.1 gram sample was analyzed for rebaudioside A content using the HPLC Method described above. Five grams of the spray-dried material was mixed with 20 mls of absolute ethanol in a 100 ml round-bottomed flask and refluxed for 1 hour at 80° C. (“refluxed sample”) and then allowed to cool to room temperature. A second 5 gram sample of the spray-dried material was mixed with 20 mls of absolute ethanol and stirred for 15 minutes at room temperature (“stirred sample”). Both samples were filtered over a Whatman GF/A glass fiber filter (1.6 μm pore size) and the retained solids of both samples were dried in a blower oven at 80° C. until the solids maintained a constant weight. 1 gram each of the refluxed sample and of the stirred sample were placed in 15 ml glass centrifuge tubes. Water was added to each tube in 0.1 ml increments and the mixture thoroughly shaken to ensure maximum solubilization. Incremental aliquots of water were added until complete solubilization was achieved as evidenced by the lack of any observable suspended solids in the solution. The final volume at which complete solubilization occurred in each sample was noted.

| Compound | % Solubility (solids (g)/ final volume (ml)) [%] | solubility in water | other results |
| --- | --- | --- | --- |
| C=C1C[C@@]23CC[C@H]4[C@@](C)(CCC[C@@]4(C)C(=O)O[C@@H]4O[C@H](CO)[C@@H](O)[C@H](O)[C@H]4O)[C@@H]2CC[C@]1(O[C@@H]1O[C@H](CO)[C@@H](O)[C@H](O[C@@H]2O[C@H](CO)[C@@H](O)[C@H](O)[C@H]2O)[C@H]1O[C@@H]1O[C@H](CO)[C@@H](O)[C@H](O)[C@H]1O)C3 [1 hour reflux in 100% ethanol, rebaudioside A] | 40 | – | % Solubility (solids (g)/ final volume (ml)) (listed as 1 hour reflux in absolute ethanol): 40% |
| C=C1C[C@@]23CC[C@H]4[C@@](C)(CCC[C@@]4(C)C(=O)O[C@@H]4O[C@H](CO)[C@@H](O)[C@H](O)[C@H]4O)[C@@H]2CC[C@]1(O[C@@H]1O[C@H](CO)[C@@H](O)[C@H](O[C@@H]2O[C@H](CO)[C@@H](O)[C@H](O)[C@H]2O)[C@H]1O[C@@H]1O[C@H](CO)[C@@H](O)[C@H](O)[C@H]1O)C3 [15 minute stir in 100% ethanol, rebaudioside A] | 33 | – | % Solubility (solids (g)/ final volume (ml)) (listed as 15 minute stirred wash in absolute ethanol): 33% |
| C=C1C[C@@]23CC[C@H]4[C@@](C)(CCC[C@@]4(C)C(=O)O[C@@H]4O[C@H](CO)[C@@H](O)[C@H](O)[C@H]4O)[C@@H]2CC[C@]1(O[C@@H]1O[C@H](CO)[C@@H](O)[C@H](O[C@@H]2O[C@H](CO)[C@@H](O)[C@H](O)[C@H]2O)[C@H]1O[C@@H]1O[C@H](CO)[C@@H](O)[C@H](O)[C@H]1O)C3 [Example 6, rebaudioside A] | – | – | solubility in water (at 25° C.): 59.0% |
| C=C1C[C@@]23CC[C@H]4[C@@](C)(CCC[C@@]4(C)C(=O)O[C@@H]4O[C@H](CO)[C@@H](O)[C@H](O)[C@H]4O)[C@@H]2CC[C@]1(O[C@@H]1O[C@H](CO)[C@@H](O)[C@H](O[C@@H]2O[C@H](CO)[C@@H](O)[C@H](O)[C@H]2O)[C@H]1O[C@@H]1O[C@H](CO)[C@@H](O)[C@H](O)[C@H]1O)C3 [No 100% ethanol treatment, rebaudioside A] | 2 | – | % Solubility (solids (g)/ final volume (ml)) (listed as 99.6% Reb A purity product): 2% |
| C=C1C[C@@]23CC[C@H]4[C@@](C)(CCC[C@@]4(C)C(=O)O[C@@H]4O[C@H](CO)[C@@H](O)[C@H](O)[C@H]4O)[C@@H]2CC[C@]1(O[C@@H]1O[C@H](CO)[C@@H](O)[C@H](O[C@@H]2O[C@H](CO)[C@@H](O)[C@H](O)[C@H]2O)[C@H]1O[C@@H]1O[C@H](CO)[C@@H](O)[C@H](O)[C@H]1O)C3 [final product, rebaudioside A] | – | ~33% | – |
| C=C1C[C@@]23CC[C@H]4[C@@](C)(CCC[C@@]4(C)C(=O)O[C@@H]4O[C@H](CO)[C@@H](O)[C@H](O)[C@H]4O)[C@@H]2CC[C@]1(O[C@@H]1O[C@H](CO)[C@@H](O)[C@H](O[C@@H]2O[C@H](CO)[C@@H](O)[C@H](O)[C@H]2O)[C@H]1O[C@@H]1O[C@H](CO)[C@@H](O)[C@H](O)[C@H]1O)C3 [purified rebaudioside A, rebaudioside A] | – | about 33% | – |
